Assay results taken from patent publication US20210255193A1, “LYSINE REACTIVE PROBES AND USES THEREOF” (The Scripps Research Institute, priority 2017, published 2021).
Each block holds one compound with its values, some of them ahead of it.

Experiments:
[1] = molecular target: T1, UBA6 Ubiquitin-like modifier-activating enzyme 6 (Homo sapiens, UniProt A0AVT1); test: competitive isoTOP-ABPP; format: binding; conditions: for R value (DMSO/fragment) for probe 1 labeling: A0AVT1_K409
T1 construct: isoTOP-ABPP experiments performed in cell lysates (in vitro); endogenous in cells; host or cells: MDA-MB-231 soluble lysate
T1 sequence (A0AVT1 1-1052): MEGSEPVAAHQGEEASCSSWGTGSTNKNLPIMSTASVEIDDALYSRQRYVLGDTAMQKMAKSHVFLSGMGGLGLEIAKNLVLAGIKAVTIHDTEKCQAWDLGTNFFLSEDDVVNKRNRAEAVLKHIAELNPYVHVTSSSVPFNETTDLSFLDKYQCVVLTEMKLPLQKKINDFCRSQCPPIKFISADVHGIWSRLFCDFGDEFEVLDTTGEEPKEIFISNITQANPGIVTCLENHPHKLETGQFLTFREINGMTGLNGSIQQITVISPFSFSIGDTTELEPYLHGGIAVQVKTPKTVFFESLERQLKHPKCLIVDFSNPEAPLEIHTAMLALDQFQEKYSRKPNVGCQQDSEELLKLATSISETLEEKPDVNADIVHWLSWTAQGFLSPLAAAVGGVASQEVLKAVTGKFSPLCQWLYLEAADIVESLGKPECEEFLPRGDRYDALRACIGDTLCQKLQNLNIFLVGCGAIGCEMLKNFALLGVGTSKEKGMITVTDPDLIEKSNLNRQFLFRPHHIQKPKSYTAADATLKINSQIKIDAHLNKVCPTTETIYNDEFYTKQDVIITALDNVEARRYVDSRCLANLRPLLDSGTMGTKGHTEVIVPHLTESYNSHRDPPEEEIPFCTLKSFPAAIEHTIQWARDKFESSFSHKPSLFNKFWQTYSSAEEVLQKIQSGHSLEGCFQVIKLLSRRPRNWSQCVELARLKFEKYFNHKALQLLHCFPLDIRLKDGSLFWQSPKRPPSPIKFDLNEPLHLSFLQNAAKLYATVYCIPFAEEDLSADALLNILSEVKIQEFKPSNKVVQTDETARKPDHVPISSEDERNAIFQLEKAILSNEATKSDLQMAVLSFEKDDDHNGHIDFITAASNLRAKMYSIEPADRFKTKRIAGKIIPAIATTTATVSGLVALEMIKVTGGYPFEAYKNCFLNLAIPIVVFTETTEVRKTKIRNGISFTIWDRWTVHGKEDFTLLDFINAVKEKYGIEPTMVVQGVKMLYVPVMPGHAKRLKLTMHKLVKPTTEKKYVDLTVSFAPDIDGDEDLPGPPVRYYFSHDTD
In short: (§1)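 Lysate + fragment (50 μM activated ester / 100 μM guanidinylating agent) or DMSO → 0.1 mM STP-alkyne, 1 h, RT → CuAAC to TEV tags (compound light, DMSO heavy) → LC-MS. R = heavy/light MS1 area; liganded lysine if R≥4.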

SNX8 Sorting nexin-8 = molecular target: T2, SNX8 Sorting nexin-8 (Homo sapiens, UniProt Q9Y5X2); test: competitive isoTOP-ABPP; format: binding; conditions: for isoTOP-ABPP reactivity ratio at lysine Q9Y5X2_K316 / isoTOP-ABPP ratio (R) at liganded lysine Q9Y5X2_K316: 50 uM, in vitro; for isoTOP-ABPP reactivity ratio at lysine Q9Y5X2_K316: 231 sol; for isoTOP-ABPP ratio, lysine Q9Y5X2_K316: 50 uM_231_sol_in vitro; for isoTOP-ABPP ratio (R) at liganded lysine Q9Y5X2_K316: sol, 231
T2 construct: endogenous in cells; host or cells: MDA-MB-231 lysate
T2 sequence (Q9Y5X2 1-465): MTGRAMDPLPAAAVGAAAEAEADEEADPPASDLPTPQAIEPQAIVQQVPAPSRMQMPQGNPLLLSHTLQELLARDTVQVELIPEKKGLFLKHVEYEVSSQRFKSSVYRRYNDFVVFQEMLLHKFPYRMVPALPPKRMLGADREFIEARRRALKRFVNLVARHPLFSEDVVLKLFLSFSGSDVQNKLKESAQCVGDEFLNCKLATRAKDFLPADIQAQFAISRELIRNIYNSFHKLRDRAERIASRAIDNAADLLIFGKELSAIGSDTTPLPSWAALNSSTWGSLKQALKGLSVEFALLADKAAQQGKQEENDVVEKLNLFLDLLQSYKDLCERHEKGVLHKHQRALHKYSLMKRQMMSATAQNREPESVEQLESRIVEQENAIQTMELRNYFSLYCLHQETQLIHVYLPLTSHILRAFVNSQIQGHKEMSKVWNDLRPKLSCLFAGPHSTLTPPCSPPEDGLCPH
In short: as §1

R value (DMSO/fragment) for probe 1 labeling ([1]; 50 uM, 231 sol, in vitro): 1.5
Structure (SMILES): O=C(CCc1cn(-c2ccccc2)nc1-c1ccccc1)Oc1c(F)c(F)c(F)c(F)c1F [fragment 19, Pentafluorophenyl 3-(1,3-diphenyl-1H-pyrazol-4-yl)propanoate]

Structure (SMILES): CC(C)(C)OC(=O)NCCCC(=O)Oc1ccc([N+](=O)[O-])cc1[N+](=O)[O-] [fragment 41, 2,4-Dinitrophenyl 4-((tert-butoxycarbonyl)amino)butanoate]
isoTOP-ABPP ratio (R) at liganded lysine A0AVT1_K409 ([1]; 50 uM, in vitro, sol, 231): 6.6

Structure (SMILES): O=C(CCc1cn(-c2ccccc2)nc1-c1ccccc1)Oc1ccc([N+](=O)[O-])cc1[N+](=O)[O-] [fragment 29, 2,4-Dinitrophenyl 3-(1,3-diphenyl-1H-pyrazol-4-yl)propanoate]
isoTOP-ABPP reactivity ratio at lysine Q9Y5X2_K316 (SNX8 Sorting nexin-8): 3.4

isoTOP-ABPP ratio, lysine Q9Y5X2_K316 (SNX8 Sorting nexin-8): 1.2
Structure (SMILES): NC(=O)c1cc(C(F)(F)F)cc(C(F)(F)F)c1 [fragment 51, reference compound]

Structure (SMILES): O=C(CCc1ccc2c(c1)OCO2)Oc1ccc([N+](=O)[O-])cc1[N+](=O)[O-] [fragment 45, 2,4-Dinitrophenyl 3-(benzo[d][1,3]dioxol-5-yl)propanoate]
isoTOP-ABPP ratio, lysine A0AVT1_K409 ([1]; 50 uM_231_sol_in vitro): 6.3

Structure (SMILES): O=C(CCc1coc2cc(F)ccc2c1=O)Oc1ccc([N+](=O)[O-])cc1[N+](=O)[O-] [fragment 36, 2,4-Dinitrophenyl 3-(7-fluoro-4-oxo-4H-chromen-3-yl)propanoate]
isoTOP-ABPP ratio (R) at liganded lysine Q9Y5X2_K316 (SNX8 Sorting nexin-8): 3.6

R value (DMSO/fragment) for probe 1 labeling ([1]; 50 uM, 231 sol, in vitro): 1.3
Structure (SMILES): COc1cc(CCC(=O)Oc2c(F)c(F)c(F)c(F)c2F)cc(OC)c1OC [fragment 23, Pentafluorophenyl 3-(3,4,5-trimethoxyphenyl)propanoate]

R value (DMSO/fragment) for probe 1 labeling ([1]; 50 uM, 231 sol, in vitro): 1.6
Structure (SMILES): Cn1cc(CC(=O)Oc2c(F)c(F)c(F)c(F)c2F)c2ccccc21 [fragment 22, Pentafluorophenyl 2-(1-methyl-1H-indol-3-yl)acetate]

isoTOP-ABPP reactivity ratio at lysine A0AVT1_K409 ([1]; 50 uM, 231 sol, in vitro): 1.4
Structure (SMILES): O=C(Oc1c(F)c(F)c(F)c(F)c1F)c1ccc2ccccc2n1 [fragment 25, Pentafluorophenyl quinoline-2-carboxylate]

Structure (SMILES): O=C(Oc1ccc([N+](=O)[O-])cc1[N+](=O)[O-])c1ccccc1Nc1cccc(C(F)(F)F)c1 [fragment 40, 2,4-Dinitrophenyl 2-((3-(trifluoromethyl)phenyl)amino)benzoate]
isoTOP-ABPP ratio (R) at liganded lysine Q9Y5X2_K316 (SNX8 Sorting nexin-8): 2.0

Structure (SMILES): O=C(ON1C(=O)CCC1=O)c1cc(C(F)(F)F)cc(C(F)(F)F)c1 [fragment 46, 3,5-Bis(trifluoromethyl)benzoic acid NHS ester]
isoTOP-ABPP ratio, lysine Q9Y5X2_K316 (SNX8 Sorting nexin-8): 2.7

Structure (SMILES): O=C(Oc1ccc([N+](=O)[O-])cc1[N+](=O)[O-])c1ccc(Oc2ccccc2)cc1 [fragment 39, 2,4-Dinitrophenyl 4-phenoxybenzoate]
isoTOP-ABPP ratio (R) at liganded lysine Q9Y5X2_K316 (SNX8 Sorting nexin-8): 1.4

Structure (SMILES): COc1cc(CCC(=O)Oc2ccc([N+](=O)[O-])cc2[N+](=O)[O-])cc(OC)c1OC [fragment 33, 2,4-Dinitrophenyl 3-(3,4,5-trimethoxyphenyl)propanoate]
isoTOP-ABPP reactivity ratio at lysine Q9Y5X2_K316 (SNX8 Sorting nexin-8): 4.1
